Literature values in publication PMC4512625, “Critical role of the SPAK protein kinase CCT domain in controlling blood pressure” (Human Molecular Genetics, 2015).

How the values were obtained:
[1] = system: human OSR1 CCT domain, Leu473 to Ala; details: mutant versus wild type
Text: Consistent with this, mutation of Leu473 to Ala reduced binding of OSR1 to RFXI WNK4 peptide over 100-fold ([40]).

[2] = system: NKCC1 in the hypothalamic paraventricular nucleus; details: intracranial administration, spontaneously hypertensive rats
Text: The altered shape of the arterial pressure waveform in our […] mice (Fig. 5B) is consistent with increased vascular compliance and reduced wave reflection in the periphery as compared with the wild-type animals. This may be explained in part by a diminished cardiac output arising from possible reductions in cardiac contractility owing to loss of NKCC1 activity in the heart ([49]) (Fig. 2B) and the lower heart rates of the […] mice (Fig. 5A), because augmentation is negatively correlated with heart rate in humans ([50]). It has also been previously shown that […] ...

| reduction of binding of OSR1 to RFXI WNK4 peptide by mutation of Leu473 to Ala [1] | Compound | heart rate [2] | sympathetic vasomotor tone [2] |
| --- | --- | --- | --- |
| over 100 fold | GRFQVT [RFXI WNK4 peptide, RFXI motif-containing peptide derived from WNK4, complexed to the human OSR1 CCT domain] | – | – |
| – | CCCCNc1cc(C(=O)O)cc(S(N)(=O)=O)c1Oc1ccccc1 [bumetanide] | lower their heart rates | reduce sympathetic vasomotor tone |
